The text below walks through data of patent US12090147B2, “Combination therapy with 2-(4-chlorophenyl)-N-((2-(2,6-dioxopiperidin-3-yl)-1-oxoisoindolin-5-yl)methyl)-2,2-difluoroacetamide” (Celgene Corporation, priority 2019, dated 2024).

Holding throughout (format): cell-based, human
One test has as its system ML-2. Nature of the test: Cytokine induction, electrochemiluminescence assay of culture supernatant. The following applies: for Effect of caspase inhibitor on secreted IL-1β induction by Compound 1: 1000 nM Compound 1 with 1, 10, 100 μM inhibitor; for Secreted IL-1β in cell culture supernatant: 24, 48 and 72 hours, doses conferring similar caspase3/7 activation and viability loss; for Effect of second agent on Compound 1 induced IL-1β: ML-2 (FIG. 12). As for the experimental part:
(§1) For cytokine assays on AML cell lines, cells were seeded at 1 million per mL, 3 mL per well of 6-well plates and allowed set overnight. The next day, cells were treated with 3 μL 1000× working stock of compounds of interest.
(§2) Human AML cell lines, HL-60 (CCL-240), KG-1 (CCL-246), ML-2 (ACC-15), MOLM-13 (ACC-554), MV-4-11 (CRL-9591), NOMO-1 (ACC-542), TF-1 (CRL-2003), THP-1 (TIB-202), and U937 (CRL-1593) were obtained from American Type Culture Collection (ATCC; Manassas, VA) or Deutsche Sammlung von Mikroorganismen and Zellkulturen (DSMZ, Germany) cell banks. Acute myeloid leukemia cell lines were maintained in RPMI-1640 (ATCC Cat No. 30-2001) containing 20% fetal bovine serum (FBS) (Corning Cat No. 35-010-CV) and maintained in humidified incubators at 5% carbon dioxide.
(§3) IL-1α (Meso Scale Disgnostics, Cat No. K151RBD), IL-1β (Meso Scale Disgnostics, Cat No. K151QPD), IL-1RA (Meso Scale Disgnostics, Cat No. K151WTD), IL-18 (Meso Scale Disgnostics, Cat No. K151VJK), TNFa (Meso Scale Disgnostics, Cat No. K151QWD), VEGF Meso Scale Disgnostics, Cat No. K151RHD) levels were measured by (Meso Scale Disgnostics assay kits following manufacturer's instructions. Measurements were made on a MESO™ SECTOR S 600 plate reader (Meso Scale Disgnostics).
(§4) Cell proliferation (CTG) and caspase 3/7 activation (IncuCyte) were analyzed using GraphPad Prism. Electrochemiluminescence data was analyzed using MSD Discovery Workbench platform.
(§5) The level of intracellular pro IL-1β and released IL-1β in eight AML cell lines and normal PBMC treated with a titration of Compound 1 over a 48 hour period was assessed. (see FIGS. 1A-1C, Table 2). Supernatant IL-1βb level was induced over 5 fold in 6 out of 8 AML cell lines and normal PBMC upon Compound 1 treatment compared to DMSO (FIGS. 1A, 1B, and 1C, Table 2).

The subject of the next test is MV4-11. Described as above. The note with it: for Effect of caspase inhibitor on secreted IL-1β induction by Compound 1: MV411, 1000 nM Compound 1 with 10 μM inhibitor. On the procedure:
as §1, §2, §3, §4, §5

The test system of another test is ML-2 cells. Nature of the test: Immunoblot analysis of target proteins. The following applies: 24, 48 and 72 hours, doses conferring similar caspase3/7 activation and viability loss. As for the experimental part:
Cells were washed in ice-cold 1×PBS twice before harvest in Cell Extraction Buffer (ThermoFisher Cat No. FNN0011) supplemented with 1× Halt Protease Inhibitor Cocktail (ThermoFisher Cat No. 78429). Whole cell extracts were collected after centrifugation at 14,000 g for 10 minutes, resolved on 4-12% Bis-Tris Novex Precast Gels (ThermoFisher Cat No. WG1403A), transferred onto a nitrocellulose membrane using the Turboblot Turbo Transfer System (Bio-Rad), and probed with the indicated primary antibodies. Bound antibodies were detected with IRDye-680 or -800 conjugated secondary antibodies using a LI-COR scanner.
Antibodies used for immunoblot: mouse anti-human GSPT-1 mAb conjugated with AL647 (clone number GSPT1-164-17G9-G6, Celgene, San Diego, CA), IL-1β (R&D Systems, Cat No. AF-201-NA), cleaved caspase 3 (Cell Signaling, Cat No. 9664S), alpha-tubulin (Cell Signaling, Cat No. 3873S), cleaved Caspase-8 (Cell Signaling, Cat No. 9748S), Caspase-1 (Cell Signaling, Cat No. 3866S), HA tag (Cell Signaling, Cat No. 3724), phosphor-eIF2a (Cell Signaling, Cat No. 9721), total eIF2a (Cell Signaling, Cat No. 9722), ATF4 (Cell Signaling, Cat No. 11815S), CHOP (Abcam, Cat No. 11419), GAPDH (Cell Signaling, Cat No. 5174), rabbit anti-mouse 800 antibody (LI-COR Biosciences), rabbit anti-mouse 680 antibody (LI-COR Biosciences), mouse anti-rabbit 680 antibody (LI-COR Biosciences), mouse anti-rabbit 800 antibody (LI-COR Biosciences)
as §5
A general note: Immunoblotting shows a protein as a band on a membrane.

In the next test the test system is MOLM-13. Briefly: Cytokine induction, electrochemiluminescence assay of culture supernatant. The following applies: for Effect of second agent on Compound 1 induced IL-1β: MOLM13 (FIG. 13). On the procedure: as §1, §2, §3, §4, §5
The next test deals with KG-1. The test is described as above. As for the experimental part:
as §1, §2, §3, §4, §5

Another test concerns NOMO-1. Described as above. As for the experimental part: as §1, §2, §3, §4, §5
The test system of the next test is TF-1. The test is described as above. On the procedure:
as §1, §2, §3, §4, §5

The test system of another test is THP-1. The test is described as above. As for the experimental part:
as §1, §2, §3, §4, §5

The next test concerns U937. The description is as above. On the procedure:
as §1, §2, §3, §4, §5

In test [1] the test system is Normal Peripheral Blood Mononuclear Cells. The test is described as above. The following applies: PBMC. On the procedure:
Normal PBMCs were purchased from AllCells (Cat No. PB006F). Primary AML BMMC in were purchased from Conversant (SKU ID: BBM1000-E1110036458110215SH) or Fidelis Research (AML55, AML57, AML73, AML74, AML76, AML79, AML80, AML81, AML84, AML95). Bone marrow from health donor was purchased from StemCell Technologies (Cat No. 70001.2).
Normal PBMCs were cultured in RPMI-1640 (ATCC Cat No. 30-2001) containing 20% fetal bovine serum (Corning Cat No. 35-010-CV). Primary AML and bone marrows were cultured in Complete Medium Cytokines 1X: StemSpam™ Serum-Free Expansion Medium (StemCell Technologies Cat No. 09650) supplemented with 50 ng/mL Stem Cell Factor (Peprotech Cat No. 300-07), 50 ng/mL recombinant Human FLT3-Ligand (Peprotech Cat No. 300-19), 20 ng/mL recombinant human-interleukin-3 (Peprotech Cat No. 200-03), […] recombinant human-interleukin-6 (Peprotech Cat No. 200-06), 1 μM StemRegenin (StemCell Technologies Cat No. 72342), penicillin/streptomycin (Invitrogen Cat No. 15140122).
as §3, §4, §5

Test [2] relates to eight AML cell lines and normal PBMC. Nature of the test: IL-1 family cytokine induction across the cell panel. The following applies: most cell lines tested (FIG. 1B: ML-2); LPS as positive control. On the procedure: as §1, §3, §5
The maturation of IL-1β can be mediated through classical caspase-1 inflammasome pathway, or a caspase-8 dependent non-canonical inflammasome signaling (Antonopoulos et al. J Biol Chem. 2015, 290(33):20167-84; Chauhan et al. Cell Rep. 2018, 25(9):2354-2368; and Schneider et al. Cell Rep. 2017, 21(13):3846-3859). To understand if classical caspase-1 mediated inflammasome pathway was activated by Compound 1, the levels of an inflammasome marker, IL-18, were tested in response to Compound 1 (FIG. 1B, Table 1), using a known inflammasome stimulant lipopolysaccharide (LPS) as positive control.

Residues, ends and D or L forms follow the SMILES beside them. *: point of attachment. Cbz = O=C(OCc1ccccc1)*; CH2F = FC*

As to `CC(C)(C)[C@H](NC(=O)c1ccc(N)c(Cl)c1)C(=O)N1CCC[C@H]1C(=O)N[C@H](C=O)CC(=O)O` [VRT043198], the “Effect of caspase inhibitor on secreted IL-1β induction by Compound 1” value (“Effect of caspase inhibitor” below) in the test on ML-2 (ML-2) and with MV4-11 was “did not suppress IL-1β induction to nearly the same extent as pan- or caspase 8 inhibitors” in each case.
For the compound `COC(=O)C[C@H](NC(=O)[C@H](C)NC(=O)[C@@H](NC(=O)OCc1ccccc1)C(C)C)C(=O)CF` [Z-VAD-FMK] (Cbz-Val-Ala-Asp(OMe)-CH2F), the “Effect of caspase inhibitor” value in the test with ML-2 (ML-2) and with MV4-11 was “significantly blocked” throughout.
For the compound `CC[C@H](C)[C@H](NC(=O)OCc1ccccc1)C(=O)N[C@@H](CCC(=O)OC)C(=O)N[C@H](C(=O)N[C@@H](CC(=O)OC)C(=O)CF)[C@@H](C)O` [Z-VAD-IETD] (Cbz-IE(OMe)TD(OMe)-CH2F), the “Effect of caspase inhibitor” value in the test with ML-2 (ML-2) and in the test with MV4-11 was “significantly blocked” each time.
Turning to `CC(C)C[C@H](NC(=O)[C@H](Cc1ccccc1)NC(=O)c1cnccn1)B(O)O` [bortezomib], in the test on ML-2 (ML-2), the “IL-1β induced by ER stress / unfolded protein response inducers” value is reported as “Low levels of IL-1β was induced” and the “Secreted IL-1β in cell culture supernatant” value is recorded as “not able to induce high levels”. Also, in the test on ML-2 cells, the “Intracellular pro-IL-1β (immunoblot)” value is reported as “not able to induce high levels”.
On to `C[C@]12CCC(=O)C=C1CC[C@@H]1[C@@H]2[C@@H](O)C[C@@]2(C)[C@H]1CC[C@]2(O)C(=O)CO` [cortisol], for which the “Effect of second agent on Compound 1 induced IL-1β” value (“Effect of second agent” below) in the test with ML-2 and with MOLM-13 was “can be suppressed” throughout.
With `C[C@]12CCC(=O)C=C1CC[C@@H]1[C@@H]2C(=O)C[C@@]2(C)[C@H]1CC[C@]2(O)C(=O)CO` [cortisone], the “Effect of second agent” value in the test with ML-2 and in the test on MOLM-13 was “can be suppressed” throughout.
As to `C[C@@H]1C[C@@H]([C@H](O)CC2CC(=O)NC(=O)C2)C(=O)[C@@H](C)C1` [cycloheximide, reference compound], in the test with ML-2 (ML-2), the “Secreted IL-1β in cell culture supernatant” value is recorded as “not able to induce high levels”. The “Intracellular pro-IL-1β (immunoblot)” value with ML-2 cells is recorded as “not able to induce high levels”.
Consider `C[C@]12C=CC(=O)C=C1CC[C@@H]1[C@@H]2[C@@H](O)C[C@@]2(C)[C@H]1CC[C@]2(O)C(=O)CO` [prednisolone], for which the “Effect of second agent” value in the test with ML-2 and in the test on MOLM-13 was “can be suppressed” each time.
`C[C@]12C=CC(=O)C=C1CC[C@@H]1[C@@H]2C(=O)C[C@@]2(C)[C@H]1CC[C@]2(O)C(=O)CO` [prednisone]: the “Effect of second agent” value in the test on ML-2 and in the test with MOLM-13 was “can be suppressed” throughout.
Turning to `C/C=C(/C)C(=O)O[C@H]1C(C)=C2[C@H]([C@@H]1OC(=O)CCCCCCC)[C@@](C)(OC(C)=O)C[C@H](OC(=O)CCC)[C@@]1(O)[C@H]2OC(=O)[C@@]1(C)O` [thapsigargin], in the test on ML-2 (ML-2), the “IL-1β induced by ER stress / unfolded protein response inducers” value is listed as “Low levels of IL-1β was induced” and the “Secreted IL-1β in cell culture supernatant” value is on record as “not able to induce high levels”. Besides, in the test on ML-2 cells, the “Intracellular pro-IL-1β (immunoblot)” value is given as “not able to induce high levels”.
Turning to `C[C@]12C=CC(=O)C=C1CC[C@H]1[C@@H]3C[C@@H](O)[C@](O)(C(=O)CO)[C@@]3(C)C[C@H](O)[C@@]12F` [triamcinolone], the “Effect of second agent” value in the test on ML-2 and in the test on MOLM-13 was “can be suppressed” in each case.
Z-YVAD: the “Effect of caspase inhibitor” value with ML-2 (ML-2) and in the test on MV4-11 was “did not suppress IL-1β induction to nearly the same extent as pan- or caspase 8 inhibitors” in each case.
On to “lipopolysaccharide [LPS, reference compound]”, for which the IL-1β induction in the test with KG-1 was found to be 17.67; in the test with ML-2 (ML-2), 8.70; with MOLM-13 (MOLM-13), 0.00; with MV4-11 (MV4-11), 65.19; in the test with NOMO-1, 3.11; in the test on TF-1, 1.12. For the same compound, the IL-1β induction in the test on THP-1 worked out at 96.62; with U937, 1.44; in [1] it was 174.15. Moreover, the IL-18 induction in the test on KG-1 was 3.47; in the test on ML-2 (ML-2), 1.21; in the test on MV4-11 (MV4-11), 24.45; in the test with NOMO-1 it was 1.77; with TF-1 it was 1.41; in the test on THP-1, 12.13. In addition, the IL-18 induction amounted to 1.28 with U937 and 1.88 in test [1]. The “IL-18 levels (inflammasome marker)” value in test [2] is listed as “profound IL-18 induction at early time point (6 hrs)”.
